The text below walks through data of patent US20230192704A1, “MONOCARBOXYLIC ACID TRANSPORTER 4 (MCT4) MODULATORS AND USES THEREOF” (Teon Therapeutics, Inc., priority 2020, published 2023).

The target of one experiment is T1, MCT1 (Homo sapiens, UniProt P53985).
T1 construct: BT-20 cells—a triple negative human breast cancer cell line expressing exclusively MCT1 (confirmed by Western blotting); host or cells: BT-20
T1 sequence (P53985 1-500): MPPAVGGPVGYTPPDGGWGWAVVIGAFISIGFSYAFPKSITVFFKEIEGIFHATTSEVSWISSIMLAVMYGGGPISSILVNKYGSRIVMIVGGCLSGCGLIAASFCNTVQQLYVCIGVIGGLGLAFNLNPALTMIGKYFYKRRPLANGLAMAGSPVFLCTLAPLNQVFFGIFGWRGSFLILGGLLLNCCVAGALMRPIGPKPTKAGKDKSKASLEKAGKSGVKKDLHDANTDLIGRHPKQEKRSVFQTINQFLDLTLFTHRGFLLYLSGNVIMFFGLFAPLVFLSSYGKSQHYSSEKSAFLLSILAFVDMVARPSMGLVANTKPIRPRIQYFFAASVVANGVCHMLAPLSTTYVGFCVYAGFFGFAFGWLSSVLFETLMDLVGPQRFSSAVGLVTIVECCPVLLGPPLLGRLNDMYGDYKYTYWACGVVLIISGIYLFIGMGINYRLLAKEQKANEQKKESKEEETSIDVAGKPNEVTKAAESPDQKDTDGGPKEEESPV
T1 sequence (P35613 140-385 partner limits assumed): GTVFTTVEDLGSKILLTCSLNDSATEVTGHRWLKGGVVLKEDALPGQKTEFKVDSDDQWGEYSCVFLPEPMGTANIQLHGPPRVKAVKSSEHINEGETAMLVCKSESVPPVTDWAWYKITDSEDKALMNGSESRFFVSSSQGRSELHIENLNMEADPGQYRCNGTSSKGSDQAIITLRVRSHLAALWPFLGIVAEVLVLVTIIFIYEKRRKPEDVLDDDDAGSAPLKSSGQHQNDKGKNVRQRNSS
In words: MCT1 transport assay (L-lactate influx, BCECF-AM intracellular pH). It counts as cell-based. The note with it: BT-20 cells expressing exclusively MCT1. From the text:
The following in vitro MCT4 and MCT1 transport assays were used to measure the effect of the compounds on L-lactate influx into two different cell lines: • a) MDA-MB-231 cells—a triple negative human breast cancer cell line expressing exclusively MCT4 (confirmed by Western blotting) was used for the MCT4 transport assay, • b) BT-20 cells—a triple negative human breast cancer cell line expressing exclusively MCT1 (confirmed by Western blotting) was used for the
(§1) The compounds' efficacy in both assays was determined by calculating their IC50 value (the concentration of test compound that inhibited 50% of biological activity).
(§2) MCT4 is predominantly involved in cellular efflux of lactate from the cell, preventing intracellular acidification. In the MCT4 in vitro transport system described here it was possible to drive influx of lactate in the cells and test the compounds efficacy in preventing this process. MCT1 is involved in influx-efflux of lactate, and because it is closely related to MCT4, it is a major selectivity target for MCT4 inhibitor. The MCT1 in vitro transport system described here measured the influx of lactate in the cells and ability of test compounds in preventing this process.
BT-20 (ATCC); Media: EMEM+10% FBS+1% PS
(§3) Tyrode's Solution pH7.4 (NaCl 119 mM; KC1 5 mM; HEPES pH7.4 25 mM; CaCl2 2 mM; MgCl2 2 mM; Glucose 6 g/L)
(§4) The following assay was performed to assess MCT4 (MDA-MB-231 cell line) or MCT1 (BT-20 cell line) activity by monitoring the intracellular pH change that accompanies lactate/proton transport using the pH-sensitive fluorescent dye BCECF-AM.
(§5) Compound preparation: The compounds were serially diluted in 100% DMSO 1:3 for 8 pts and transferred (500 nl) to a 96-well plate by Echo.
(§6) Cell preparation: Cells were briefly rinsed with 10 ml of PBS solution to remove all traces of serum, trypsinized (0.05% Trypsin-EDTA) at 25° C. for 2-3 minutes and washed twice with Tyrode's solution. The cell viability and concentration were determined using Vi-Cell. Cells were resuspended in Tyrode's solution.
(§7) Cells were loaded with the pH sensitive dye BCECF-AM (5 uM final concentration from the 30 mM DMSO stock solution) at 37° C. for 30 minutes before being washed twice to remove excess dye and resuspended to 2 million/ml cells in Tyrode's solution. Cells were seeded into a 96-well plate (200,000 cells/well) directly onto the test compound or a reference compound for 10 minutes at 37° C. Following incubation with test compounds, 25 ul of 30 mM Sodium-L-lactate was added. This addition was performed on the FlexStation III as a part of a real-time kinetic protocol. The ratio of cellular fluorescence at 535 nm after excitation at 490 nm/440 nm was measured over time for baseline (pre-lactate addition) and post-lactate addition for 60 sec with or without compounds present. Inhibitory concentration response curves were generated for compounds and their IC50 values calculated.

Another experiment concerns the target T2, MCT4 (Homo sapiens, UniProt O15427).
T2 construct: MDA-MB-231 cells—a triple negative human breast cancer cell line expressing exclusively MCT4 (confirmed by Western blotting); host or cells: MDA-MB-231
T2 sequence (O15427 2-465 limits assumed): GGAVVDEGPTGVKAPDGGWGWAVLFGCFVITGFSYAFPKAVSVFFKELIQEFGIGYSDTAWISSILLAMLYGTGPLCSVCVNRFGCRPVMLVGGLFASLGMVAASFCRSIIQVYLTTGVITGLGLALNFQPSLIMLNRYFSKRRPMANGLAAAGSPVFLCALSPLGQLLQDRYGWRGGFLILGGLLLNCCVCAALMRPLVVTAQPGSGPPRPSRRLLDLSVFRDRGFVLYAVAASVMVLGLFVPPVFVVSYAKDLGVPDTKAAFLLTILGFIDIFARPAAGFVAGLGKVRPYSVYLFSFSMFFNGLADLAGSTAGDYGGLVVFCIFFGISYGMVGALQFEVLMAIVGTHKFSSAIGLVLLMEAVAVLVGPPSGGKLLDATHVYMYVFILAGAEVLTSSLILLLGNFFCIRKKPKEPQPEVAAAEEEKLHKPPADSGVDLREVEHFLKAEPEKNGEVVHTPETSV
In words: MCT4 transport assay (L-lactate influx, BCECF-AM intracellular pH). It counts as cell-based. To be noted: MDA-MB-231 cells expressing exclusively MCT4. The method, then: as §1, §2, §3, §4, §5, §6, §7

Structures are written as SMILES.

A word on the IC50: it is the concentration that inhibits the measured activity by half. Lower therefore signals higher potency. In turn, `Cc1nc2nc(C)c(O[C@@H]3CCN(c4ccc(-c5ccc(CN6CCOCC6)nn5)cc4)C3)c(C)n2n1` [Compound 1, (R)-4-((6-(4-(3-((2,5,7-trimethyl-[1,2,4]triazolo[1,5-a]pyrimidin-6-yl)oxy)pyrrolidin-1-yl)phenyl)pyridazin-3-yl)methyl)morpholine] yielded an IC50 against MCT1 greater than 1000 nM.

Regarding `Cc1cn2c(C)c(O[C@@H]3CCN(c4ccc(-c5ccc(CN6CCOCC6)nn5)cc4)C3)c(C)nc2n1` [Compound 2, (R)-4-((6-(4-(3-((2,5,7-trimethylimidazo[1,2-a]pyrimidin-6-yl)oxy)pyrrolidin-1-yl)phenyl)pyridazin-3-yl)methyl)morpholine], the IC50 on MCT1 was greater than 1000 nM; at MCT4, 100 to 499 nM.

Turning to `Cc1nc2nc(C)c(C)n2c(C)c1O[C@@H]1CCN(c2ccc(-c3ccc(CN4CCOCC4)nn3)cc2)C1` [Compound 3, (R)-4-((6-(4-(3-((2,3,5,7-tetramethylimidazo[1,2-a]pyrimidin-6-yl)oxy)pyrrolidin-1-yl)phenyl)pyridazin-3-yl)methyl)morpholine], the IC50 on MCT1 and on MCT4 was greater than 1000 nM each time.

With `Cc1cc2nc(C)c(O[C@@H]3CCN(c4ccc(-c5ccc(CN6CCOCC6)nn5)cc4)C3)c(C)n2n1` [Compound 4, (R)-4-((6-(4-(3-((2,5,7-trimethylpyrazolo[1,5-a]pyrimidin-6-yl)oxy)pyrrolidin-1-yl)phenyl)pyridazin-3-yl)methyl)morpholine], the IC50 was greater than 1000 nM at MCT1 and less than 100 nM against MCT4.

On to `Cc1nc2nc(C)c(O[C@@H]3CCN(c4cnc(C#CCN5CCOCC5)nc4)C3)c(C)n2n1` [Compound 5, (R)-4-(3-(5-(3-((2,5,7-trimethyl-[1,2,4]triazolo[1,5-a]pyrimidin-6-yl)oxy)pyrrolidin-1-yl)pyrimidin-2-yl)prop-2-yn-1-yl)morpholine], for which the IC50 is greater than 1000 nM against MCT1 and less than 100 nM against MCT4.

For the compound `Cc1nc2nc(C)c(O[C@@H]3CCN(c4cnc(C56CCC(CN7CCOCC7)(CC5)CC6)nc4)C3)c(C)n2n1` [Compound 6, (R)-4-((4-(5-(3-((2,5,7-trimethyl-[1,2,4]triazolo[1,5-a]pyrimidin-6-yl)oxy)pyrrolidin-1-yl)pyrimidin-2-yl)bicyclo[2.2.2]octan-1-yl)methyl)morpholine], the IC50 was greater than 1000 nM at MCT1 and less than 100 nM at MCT4.

`Cc1nc2nc(C)c(O[C@@H]3CCN(c4ccc(-c5ccc(CN6CC7(COC7)C6)nn5)cc4)C3)c(C)n2n1` [Compound 7, (R)-6-((6-(4-(3-((2,5,7-trimethyl-[1,2,4]triazolo[1,5-a]pyrimidin-6-yl)oxy)pyrrolidin-1-yl)phenyl)pyridazin-3-yl)methyl)-2-oxa-6-azaspiro[3.3]heptane]: the IC50 at MCT1 is greater than 1000 nM; on MCT4, less than 100 nM.

Regarding `COC1CN(Cc2ccc(-c3ccc(N4CC[C@@H](Oc5c(C)nc6nc(C)nn6c5C)C4)cc3)nn2)C1` [Compound 8, (R)-6-((1-(4-(6-((3-methoxyazetidin-1-yl)methyl)pyridazin-3-yl)phenyl)pyrrolidin-3-yl)oxy)-2,5,7-trimethyl-[1,2,4]triazolo[1,5-a]pyrimidine], the IC50 on MCT1 was greater than 1000 nM; against MCT4 it was less than 100 nM.

Take `Cc1nc2nc(C)c(O[C@@H]3CCN(c4ccc(-c5ccc(CN6CC(N(C)C)C6)nn5)cc4)C3)c(C)n2n1` [Compound 9, (R)-N,N-dimethyl-1-((6-(4-(3-((2,5,7-trimethyl-[1,2,4]triazolo[1,5-a]pyrimidin-6-yl)oxy)pyrrolidin-1-yl)phenyl)pyridazin-3-yl)methyl)azetidin-3-amine]: the concentration for half-maximal inhibition (IC50) against MCT1 is greater than 1000 nM; against MCT4 it was less than 100 nM.

For the compound `Cc1nc2nc(C)c(O[C@@H]3CCN(c4ccc(-c5ccc(CN6CC(S(C)(=O)=O)C6)nn5)cc4)C3)c(C)n2n1` [Compound 10, (R)-2,5,7-trimethyl-6-((1-(4-(6-((3-(methylsulfonyl)azetidin-1-yl)methyl)pyridazin-3-yl)phenyl)pyrrolidin-3-yl)oxy)-[1,2,4]triazolo[1,5-a]pyrimidine], the IC50 was greater than 1000 nM on MCT1 and less than 100 nM on MCT4.

With `Cc1nc2nc(C)c(O[C@@H]3CCN(c4ccc(-c5ccc(CN6CC(C(N)=O)C6)nn5)cc4)C3)c(C)n2n1` [Compound 11, (R)-1-((6-(4-(3-((2,5,7-trimethyl-[1,2,4]triazolo[1,5-a]pyrimidin-6-yl)oxy)pyrrolidin-1-yl)phenyl)pyridazin-3-yl)methyl)azetidine-3-carboxamide], the IC50 on MCT1 was greater than 1000 nM; against MCT4 it was 100 to 499 nM.

As for `Cc1nc2nc(C)c(O[C@@H]3CCN(c4ccc(-c5ccc(CN6CC(C(=O)N(C)C)C6)nn5)cc4)C3)c(C)n2n1` [Compound 12, (R)-N,N-dimethyl-1-((6-(4-(3-((2,5,7-trimethyl-[1,2,4]triazolo[1,5-a]pyrimidin-6-yl)oxy)pyrrolidin-1-yl)phenyl)pyridazin-3-yl)methyl)azetidine-3-carboxamide], the IC50 against MCT1 is greater than 1000 nM; on MCT4, less than 100 nM.

On to `Cc1nc2nc(C)c(O[C@@H]3CCN(c4ccc(-c5ccc(C(=O)N6CC7(COC7)C6)nn5)cc4)C3)c(C)n2n1` [Compound 13, (R)-(2-oxa-6-azaspiro[3.3]heptan-6-yl)(6-(4-(3-((2,5,7-trimethyl-[1,2,4]triazolo[1,5-a]pyrimidin-6-yl)oxy)pyrrolidin-1-yl)phenyl)pyridazin-3-yl)methanone], for which the IC50 against MCT1 was greater than 1000 nM; at MCT4, less than 100 nM.

With `COC1CN(C(=O)c2ccc(-c3ccc(N4CC[C@@H](Oc5c(C)nc6nc(C)nn6c5C)C4)cc3)nn2)C1` [Compound 14, (R)-(3-methoxyazetidin-1-yl)(6-(4-(3-((2,5,7-trimethyl-[1,2,4]triazolo[1,5-a]pyrimidin-6-yl)oxy)pyrrolidin-1-yl)phenyl)pyridazin-3-yl)methanone], the values for the IC50 at MCT1 and on MCT4 were greater than 1000 nM and less than 100 nM, respectively.

`Cc1nc2nc(C)c(O[C@@H]3CCN(c4ccc(-c5ccc(C(=O)N6CC(N(C)C)C6)nn5)cc4)C3)c(C)n2n1` [Compound 15, (R)-(3-(dimethylamino)azetidin-1-yl)(6-(4-(3-((2,5,7-trimethyl-[1,2,4]triazolo[1,5-a]pyrimidin-6-yl)oxy)pyrrolidin-1-yl)phenyl)pyridazin-3-yl)methanone]: the IC50 on MCT1 is greater than 1000 nM; on MCT4, less than 100 nM.
